For 29 compounds, IC50 results are on record in patent US20130274254A1, “INHIBITORS OF CYTOCHROME P450 (CYP3A4)” (Gilead Sciences, Inc., priority 2010, published 2013).

Molecules are shown by their SMILES.

The target in data set [1] is T1, CYP3A4 (Homo sapiens, UniProt P08684). In words: CYP3A inhibition assay, testosterone 6β-hydroxylase activity in pooled human hepatic microsomal fraction. The protocol: Pooled (n≧15 donors) human hepatic microsomal fraction was obtained from BD-Gentest (Woburn, Mass.) who also supplied hydroxy-terfenadine, 4′-hydroxydiclofenac and NADPH regenerating system. Ritonavir was prepared from commercial Norvir® oral solution (Abbott Laboratories, Abbott Park, Ill.). Other reagents were from Sigma-Aldrich (St. Louis, Mo.) and included terfenadine, fexofenadine, BRL 15572, diclofenac and mefenamic acid.
Incubations were performed in duplicate in 50 mM potassium phosphate buffer, pH 7.4 with NADPH regenerating system used as described by the manufacturer. […] The final substrate concentrations used were equal to the apparent Km values for the activities determined under the same conditions. Inhibitors were dissolved in DMSO, and the final concentration of DMSO, from both substrate and inhibitor vehicles, was 1% (v/v). Incubations were performed at 37° C. with shaking and were initiated by addition of substrate. Aliquots were then removed at 0, 7 and 15 minutes. Samples were quenched by treatment with an acetonitrile, formic acid, water (94.8%/0.2%/5%, v/v/v) mixture containing internal standard. Precipitated protein was removed by centrifugation at 3000 rpm for 10 min and aliquots of the supernatant were then subjected to LC-MS analysis.
The LC-MS system consisted of a Waters Acquity UPLC, with a binary solvent manager and a refrigerated (8° C.) sample organizer and sample manager, interfaced to a Micromass Quattro Premier tandem mass spectrometer operating in electrospray ionization mode. The column was a Waters Acquity UPLC BEH C18 2.1×50 mm, 1.7 μm pore size. Mobile phases consisted of mixtures of acetonitrile, formic acid and water, the composition for mobile phase A being 1%/0.2%/98.8% (v/v/v) and that for mobile phase B being 94.8%/0.2%/5% (v/v/v). The injection volumes were 5 μL and the flow rate was 0.8 mL/min. Concentrations of metabolites were determined by reference to standard curves generated with authentic analytes under the same conditions as the incubations.
(§1) IC50 values (the concentration of inhibitor reducing CYP3A activity by 50%) were calculated by non-linear regression using GraphPad Prism 4.0 software and a sigmoidal model.
For midazolam hydroxylase determination the final concentrations of microsomal protein and […] substrate were 0.25 mg/mL and 2.5 μM, respectively, and the LC-MS internal standard was 1α-hydroxytriazolam. For testosterone hydroxylase activity the final microsomal protein concentration was 0.5 mg/mL, the substrate concentration was 50 μM and the LC-MS internal standard was D7-labeled 6β-hydroxytestosterone. After incubation at 37° C. for 5 minutes, metabolic reactions were terminated by treatment with quench solution containing the appropriate internal standard and were subsequently centrifuged before aliquots of the supernatant were removed and diluted with 0.1% (v/v) formic acid for LC-MS analysis.
(§2) For LC-MS analysis the column was a Phenomenex Synergi Max RP 4 μm column (50×2.0 mm) and the injection volume was 5 μL. The MS/MS ion current metabolite/internal standard peak area ratios (PAR) were measured on an Applied Biosystems SciEx API4000 triple quadrupole mass spectrometer coupled to a Leap CTC PAL autosampler with a 20 μL loop and a Shimadzu LC pump with a 25 μL mixer. The initial mobile phase consisted of 94.9% water, 0.1% formic acid, and 5% acetonitrile (v/v/v) pumped at 0.5 mL/min. After 0.5 min the acetonitrile concentration was increased to 30% over 0.5 min. The acetonitrile concentration was then further increased to 100% over 0.5 min and held for 1.3 min, after which the column was re equilibrated at the initial conditions for 1.2 min. Rates of metabolite formation were determined from standard curves using PAR determined with authentic metabolite standards.

For data set [2], the target named is T1, CYP3A4. In words: CYP3A inhibition assay, midazolam 1'-hydroxylase activity in pooled human hepatic microsomal fraction. The conditions noted are these: pooled human liver microsomes, pH 7.4, probe midazolam (1'-hydroxylation), 0.25 mg/mL microsomal protein. The data set is classed as biochemical. The protocol:
Pooled (n≧15 donors) human hepatic microsomal fraction was obtained from BD-Gentest (Woburn, Mass.) who also supplied hydroxy-terfenadine, 4′-hydroxydiclofenac and NADPH regenerating system. Ritonavir was prepared from commercial Norvir® oral solution (Abbott Laboratories, Abbott Park, Ill.). Other reagents were from Sigma-Aldrich (St. Louis, Mo.) and included terfenadine, fexofenadine, BRL 15572, diclofenac and mefenamic acid. […]
as §1
[…] For testosterone hydroxylase activity the final microsomal protein concentration was 0.5 mg/mL, the substrate concentration was 50 μM and the LC-MS internal standard was D7-labeled 6β-hydroxytestosterone. After incubation at 37° C. for 5 minutes, metabolic reactions were terminated by treatment with quench solution containing the appropriate internal standard and were subsequently centrifuged before aliquots of the supernatant were removed and diluted with 0.1% (v/v) formic acid for LC-MS analysis.
as §2

T1 sequence (P08684 2-503): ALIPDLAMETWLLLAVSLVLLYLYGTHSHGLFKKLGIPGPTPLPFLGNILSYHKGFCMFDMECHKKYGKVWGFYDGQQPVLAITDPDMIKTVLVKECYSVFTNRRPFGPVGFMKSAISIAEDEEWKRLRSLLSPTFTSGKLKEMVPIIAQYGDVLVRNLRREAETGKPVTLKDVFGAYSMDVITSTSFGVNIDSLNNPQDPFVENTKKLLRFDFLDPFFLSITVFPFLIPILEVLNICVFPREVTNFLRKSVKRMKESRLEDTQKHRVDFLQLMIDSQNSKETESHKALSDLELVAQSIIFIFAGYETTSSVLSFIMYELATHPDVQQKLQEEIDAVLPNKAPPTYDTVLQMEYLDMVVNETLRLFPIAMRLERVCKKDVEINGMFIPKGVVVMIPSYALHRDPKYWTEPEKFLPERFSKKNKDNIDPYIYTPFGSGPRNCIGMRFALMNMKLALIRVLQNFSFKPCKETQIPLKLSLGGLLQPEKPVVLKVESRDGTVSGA

In the case of `CN(Cc1ccco1)C(=O)N[C@@H](CCN1CCOCC1)C(=O)N[C@H](CC[C@H](Cc1ccccc1)NC(=O)OCc1cncs1)Cc1ccccc1` [Compound 60], the 50% inhibitory concentration (IC50) – broadly, the concentration at which inhibition is half-maximal – at CYP3A4 [1] amounted to 0.29 µM. Besides, at CYP3A4 [2], the IC50 at 5 min was 0.13 µM.
For the compound `CN(C(=O)N[C@@H](CCN1CCOCC1)C(=O)N[C@H](CC[C@H](Cc1ccccc1)NC(=O)OCc1cncs1)Cc1ccccc1)C(C)(C)C` [Compound 11], the IC50 on CYP3A4 [1] came out at 0.42 µM. For the same compound, the IC50 at 5 min on CYP3A4 [2] came to 0.13 µM.
Take `Cc1ncsc1CCC(=O)N[C@H](CC[C@H](Cc1ccccc1)NC(=O)[C@@H](NC(=O)N(C)Cc1csc(C(C)C)n1)C(C)C)Cc1ccccc1` [Compound 90]: at CYP3A4 [1], the IC50 stood at 0.45 µM. Besides, at CYP3A4 [2], the IC50 at 5 min is 0.19 µM.
`O=C(N[C@H](CC[C@H](Cc1ccccc1)NC(=O)[C@@H]1C[C@@H](O)CN1C(=O)OCc1ccccc1)Cc1ccccc1)OCc1cncs1` [Compound 67]: the IC50 on CYP3A4 [1] amounted to 0.21 µM. In addition, at CYP3A4 [2], the half-maximal inhibitory concentration (IC50) at 5 min worked out at 0.18 µM.
Consider `CC(C)c1nc(CN(C)C(=O)N[C@H](C(=O)N[C@H](CC[C@H](Cc2ccccc2)NC(=O)CCc2cccs2)Cc2ccccc2)C(C)C)cs1` [Compound 89], for which, at CYP3A4 [1], the IC50 is 2.3 µM. The IC50 at 5 min at CYP3A4 [2] came to 0.7 µM.
For `O=C(N[C@H](CC[C@H](Cc1ccccc1)NC(=O)[C@H](CCN1CCOCC1)NC(=O)N1CCCC1)Cc1ccccc1)OCc1cncs1` [Compound 10], in that order: 0.32 µM and 0.22 µM.
Turning to `CC(C)[C@H](NC(=O)N1CCN(C)CC1)C(=O)N[C@H](CC[C@H](Cc1ccccc1)NC(=O)OCc1cncs1)Cc1ccccc1` [Compound 28], the IC50 on CYP3A4 [1] is 0.47 µM. In addition, the IC50 at 5 min at CYP3A4 [2] stood at 0.19 µM.
`CN(Cc1cccnc1)C(=O)N[C@@H](CCN1CCOCC1)C(=O)N[C@H](CC[C@H](Cc1ccccc1)NC(=O)OCc1cncs1)Cc1ccccc1` [Compound 59]: the IC50 on CYP3A4 [1] amounted to 0.45 µM. Moreover, the IC50 at 5 min on CYP3A4 [2] was under 0.1 µM.
Taken in the same sequence, the figures for `CC(=O)NCC[C@H](NC(=O)N(C)C(C)C)C(=O)N[C@H](CC[C@H](Cc1ccccc1)NC(=O)OCc1cncs1)Cc1ccccc1` [Compound 35] were 0.15 µM and 0.15 µM.
Regarding `CN(C)C(=O)N[C@@H](CCN1CCOCC1)C(=O)N[C@H](CC[C@H](Cc1ccccc1)NC(=O)OCc1cncs1)Cc1ccccc1` [Compound 16], at CYP3A4 [1], the IC50 amounted to 0.71 µM. Further, the IC50 at 5 min at CYP3A4 [2] was determined as 0.15 µM.
On to `CN1CCN(C(=O)N[C@@H](CCN2CCOCC2)C(=O)N[C@H](CC[C@H](Cc2ccccc2)NC(=O)OCc2cncs2)Cc2ccccc2)CC1` [Compound 15], for which the IC50 on CYP3A4 [1] came to 1.1 µM. At CYP3A4 [2], the IC50 at 5 min stood at 0.41 µM.
For `CC(C)c1nc(CN(C)C(=O)N[C@H](C(=O)N[C@H](CC[C@H](Cc2ccccc2)NC(=O)OCc2cccnc2)Cc2ccccc2)C(C)C)cs1` [Compound 73], at CYP3A4 [1], the IC50 stood at 0.45 µM. Further, the IC50 at 5 min on CYP3A4 [2] amounted to 0.16 µM.
Regarding `CC(C)[C@H](NC(=O)N1CCOCC1)C(=O)N[C@H](CC[C@H](Cc1ccccc1)NC(=O)OCc1cncs1)Cc1ccccc1` [Compound 27], the IC50 on CYP3A4 [1] worked out at 0.25 µM. For the same compound, at CYP3A4 [2], the half-inhibitory concentration (IC50) at 5 min is 0.11 µM.
With `CC(C)[C@H](NC(=O)N(C)C(C)C)C(=O)N[C@H](CC[C@H](Cc1ccccc1)NC(=O)OCc1cncs1)Cc1ccccc1` [Compound 29], the IC50 at CYP3A4 [1] stood at 0.32 µM. Further, the IC50 at 5 min on CYP3A4 [2] was under 0.1 µM.
For `CN(C(=O)N[C@@H](CCN1CCOCC1)C(=O)N[C@H](CC[C@H](Cc1ccccc1)NC(=O)OCc1cncs1)Cc1ccccc1)C1CCCCC1` [Compound 19], in that order: 0.28 µM and 0.18 µM.
`CC(C)N(C)C(=O)N[C@H](CCN1CCOCC1)C(=O)N[C@H](CC[C@H](Cc1ccccc1)NC(=O)OCc1cncs1)Cc1ccccc1` [Compound 53]: on CYP3A4 [1], the IC50 turned out to be 0.26 µM. Besides, the IC50 at 5 min on CYP3A4 [2] is under 0.1 µM.
For `CC(C)N(C)C(=O)N[C@@H](CCN1CCOCC1)C(=O)N[C@H](CC[C@H](Cc1ccccc1)NC(=O)OCc1cncs1)Cc1ccccc1` [Compound 7], the IC50 at CYP3A4 [1] is 0.31 µM. For the same compound, at CYP3A4 [2], the 50% inhibitory concentration (IC50) at 5 min was determined as 0.14 µM.
For `CC(=O)NCC[C@H](NC(=O)N1CCCCC1)C(=O)N[C@H](CC[C@H](Cc1ccccc1)NC(=O)OCc1cncs1)Cc1ccccc1` [Compound 40], in that order: 0.22 µM and 0.1 µM.
Take `CC(=O)NCC[C@H](NC(=O)N(C)C(C)C)C(=O)N[C@@H](CC[C@@H](Cc1ccccc1)NC(=O)OCc1cncs1)Cc1ccccc1` [Compound 36]: the IC50 at CYP3A4 [1] was 0.24 µM. Besides, the IC50 at 5 min at CYP3A4 [2] was under 0.1 µM.
Take `CN(Cc1ccc(F)cc1)C(=O)N[C@@H](CCN1CCOCC1)C(=O)N[C@H](CC[C@H](Cc1ccccc1)NC(=O)OCc1cncs1)Cc1ccccc1` [Compound 20]: the IC50 on CYP3A4 [1] was determined as 0.36 µM. For the same compound, the half-maximal inhibitory concentration (IC50) at 5 min on CYP3A4 [2] was found to be 0.11 µM.
`CC(=O)NCC[C@H](NC(=O)N1CCCCC1)C(=O)N[C@@H](CC[C@@H](Cc1ccccc1)NC(=O)OCc1cncs1)Cc1ccccc1` [Compound 41]: the IC50 at CYP3A4 [1] was determined as 0.4 µM. In addition, the half-maximal inhibitory concentration (IC50) at 5 min at CYP3A4 [2] was under 0.1 µM.
As to `CC(C)(C)OC(=O)N[C@@H](CCN1CCOCC1)C(=O)N[C@H](CC[C@H](Cc1ccccc1)NC(=O)OCc1cncs1)Cc1ccccc1` [Compound 54], the IC50 on CYP3A4 [1] came out at 0.41 µM. Moreover, the half-maximal inhibitory concentration (IC50) at 5 min on CYP3A4 [2] was under 0.1 µM.
As to `O=C(N[C@H](CC[C@H](Cc1ccccc1)NC(=O)[C@H](CCN1CCOCC1)NC(=O)N1CCOCC1)Cc1ccccc1)OCc1cncs1` [Compound 12], the IC50 on CYP3A4 [1] was 0.64 µM. The half-maximal inhibitory concentration (IC50) at 5 min at CYP3A4 [2] was 0.2 µM.
Consider `CN(Cc1ccccc1)C(=O)N[C@@H](CCN1CCOCC1)C(=O)N[C@H](CC[C@H](Cc1ccccc1)NC(=O)OCc1cncs1)Cc1ccccc1` [Compound 17], for which, at CYP3A4 [1], the IC50 turned out to be 0.3 µM. Moreover, the IC50 at 5 min at CYP3A4 [2] worked out at 0.13 µM.
On to `COCCN(C)C(=O)N[C@@H](CCN1CCOCC1)C(=O)N[C@H](CC[C@H](Cc1ccccc1)NC(=O)OCc1cncs1)Cc1ccccc1` [Compound 21], for which, at CYP3A4 [1], the IC50 turned out to be 0.56 µM. Also, the half-inhibitory concentration (IC50) at 5 min on CYP3A4 [2] came to 0.26 µM.
Regarding `CC(C)c1nc(CN(C)C(=O)N[C@H](C(=O)N[C@H](CC[C@H](Cc2ccccc2)NC(=O)OC(C)(C)C)Cc2ccccc2)C(C)C)cs1` [Compound 70], the IC50 at CYP3A4 [1] came to 1.5 µM. The IC50 at 5 min on CYP3A4 [2] turned out to be 0.72 µM.
As to `CN(Cc1ccccn1)C(=O)N[C@@H](CCN1CCOCC1)C(=O)N[C@H](CC[C@H](Cc1ccccc1)NC(=O)OCc1cncs1)Cc1ccccc1` [Compound 61], the IC50 on CYP3A4 [1] turned out to be 0.53 µM. Moreover, at CYP3A4 [2], the IC50 at 5 min stood at 0.19 µM.
For `CC(C)CN(C)C(=O)N[C@@H](CCN1CCOCC1)C(=O)N[C@H](CC[C@H](Cc1ccccc1)NC(=O)OCc1cncs1)Cc1ccccc1` [Compound 14], in that order: 0.32 µM and 0.13 µM.
Regarding `O=C(NC1CCCCC1)N[C@@H](CCN1CCOCC1)C(=O)N[C@H](CC[C@H](Cc1ccccc1)NC(=O)OCc1cncs1)Cc1ccccc1` [Compound 18], on CYP3A4 [1], the IC50 is 0.35 µM. At CYP3A4 [2], the IC50 at 5 min is 0.18 µM.
